From PubChem BioAssay AID2060912 (Molecular Pharmacology Branch, DTP, NCI, 2025)
Values joined by “and” are separate entries in the source; they are usually repeats but may differ in a detail not shown here. Identical values can stand only once.

Tested on: HUVEC/MSC spheroids viability
Test: Human HUVEC/MSC cell line growth inhibition [KRAS2];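 on viability, T/C: percent of DMSO vehicle control luminescence so 100% = untreated viability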
Settings: for viability, T/C: stronger effect = lower value
Outline: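 Endothelial cells (HUVEC) plus mesenchymal stem cells, cultured at 37 °C/5% CO2 and assembled into spheroids without cancer cells, served as a stromal control. Drug pairs and single agents spanned half-log ranges anchored to clinical Cmax.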

[1] = curve of first compound, second compound 0.0316 µM
[2] = curve of first compound, second compound 0.1 µM
[3] = curve of first compound, second compound 0.316 µM
[4] = curve of first compound, second compound 1 µM
[5] = curve of first compound, second compound 3.16 µM
[6] = curve of first compound, second compound 10 µM
[7] = second compound 0.0316 µM, first compound 0.0316 µM
[8] = second compound 0.0316 µM, first compound 0.1 µM
[9] = second compound 0.0316 µM, first compound 0.316 µM
[10] = second compound 0.0316 µM, first compound 1 µM
[11] = second compound 0.0316 µM, first compound 3.16 µM
[12] = second compound 0.0316 µM, first compound 10 µM
[13] = second compound 0.1 µM, first compound 0.0316 µM
[14] = second compound 0.1 µM, first compound 0.1 µM
[15] = second compound 0.1 µM, first compound 0.316 µM
[16] = second compound 0.1 µM, first compound 1 µM
[17] = second compound 0.1 µM, first compound 3.16 µM
[18] = second compound 0.1 µM, first compound 10 µM
[19] = second compound 0.316 µM, first compound 0.0316 µM
[20] = second compound 0.316 µM, first compound 0.1 µM
[21] = second compound 0.316 µM, first compound 0.316 µM
[22] = second compound 0.316 µM, first compound 1 µM
[23] = second compound 0.316 µM, first compound 3.16 µM
[24] = second compound 0.316 µM, first compound 10 µM
[25] = second compound 1 µM, first compound 0.0316 µM
[26] = second compound 1 µM, first compound 0.1 µM
[27] = second compound 1 µM, first compound 0.316 µM
[28] = second compound 1 µM, first compound 1 µM
[29] = second compound 1 µM, first compound 3.16 µM
[30] = second compound 1 µM, first compound 10 µM
[31] = second compound 3.16 µM, first compound 0.0316 µM
[32] = second compound 3.16 µM, first compound 0.1 µM
[33] = second compound 3.16 µM, first compound 0.316 µM
[34] = second compound 3.16 µM, first compound 1 µM
[35] = second compound 3.16 µM, first compound 3.16 µM
[36] = second compound 3.16 µM, first compound 10 µM
[37] = second compound 10 µM, first compound 0.0316 µM
[38] = second compound 10 µM, first compound 0.1 µM
[39] = second compound 10 µM, first compound 0.316 µM
[40] = second compound 10 µM, first compound 1 µM
[41] = second compound 10 µM, first compound 3.16 µM
[42] = second compound 10 µM, first compound 10 µM

CC(=O)OC12COC1CC(O)C1(C)C(=O)C(O)C3=C(C)C(OC(=O)C(O)C(NC(=O)OC(C)(C)C)c4ccccc4)CC(O)(C(OC(=O)c4ccccc4)C21)C3(C)C (centres undefined) + C=CC(=O)N1CCN(c2nc(=O)n(-c3c(C)ccnc3C(C)C)c3nc(-c4c(O)cccc4F)c(F)cc23)C(C)C1
IC50 [1]: > 3 µM | IC50 [2]: > 3 µM | IC50 [3]: > 3 µM | IC50 [4]: > 3 µM | IC50 [5]: > 3 µM | IC50 [6]: > 3 µM | viability, T/C (second compound 0.0316 µM, first compound 0.00949 µM): 57.6% | viability, T/C (second compound 0.0316 µM, first compound 0.03 µM): 67.8% | viability, T/C (second compound 0.0316 µM, first compound 0.0949 µM): 47.2% | viability, T/C (second compound 0.0316 µM, first compound 0.3 µM): 41.4% | viability, T/C (second compound 0.0316 µM, first compound 0.949 µM): 63% | viability, T/C (second compound 0.0316 µM, first compound 3 µM): 55.2% | viability, T/C (second compound 0.1 µM, first compound 0.00949 µM): 65.5% | viability, T/C (second compound 0.1 µM, first compound 0.03 µM): 52.8% | viability, T/C (second compound 0.1 µM, first compound 0.0949 µM): 57.4% | viability, T/C (second compound 0.1 µM, first compound 0.3 µM): 54.1% | viability, T/C (second compound 0.1 µM, first compound 0.949 µM): 57.3% | viability, T/C (second compound 0.1 µM, first compound 3 µM): 63.7% | viability, T/C (second compound 0.316 µM, first compound 0.00949 µM): 54.5% | viability, T/C (second compound 0.316 µM, first compound 0.03 µM): 58.9% | viability, T/C (second compound 0.316 µM, first compound 0.0949 µM): 61.6% | viability, T/C (second compound 0.316 µM, first compound 0.3 µM): 57.5% | viability, T/C (second compound 0.316 µM, first compound 0.949 µM): 65% | viability, T/C (second compound 0.316 µM, first compound 3 µM): 70.3% | viability, T/C (second compound 1 µM, first compound 0.00949 µM): 57.1% | viability, T/C (second compound 1 µM, first compound 0.03 µM): 61.4% | viability, T/C (second compound 1 µM, first compound 0.0949 µM): 59.2% | viability, T/C (second compound 1 µM, first compound 0.3 µM): 59.8% | viability, T/C (second compound 1 µM, first compound 0.949 µM): 62.9% | viability, T/C (second compound 1 µM, first compound 3 µM): 67.9% | viability, T/C (second compound 3.16 µM, first compound 0.00949 µM): 66% | viability, T/C (second compound 3.16 µM, first compound 0.03 µM): 82.4% | viability, T/C (second compound 3.16 µM, first compound 0.0949 µM): 64.8% | viability, T/C (second compound 3.16 µM, first compound 0.3 µM): 84.4% | viability, T/C (second compound 3.16 µM, first compound 0.949 µM): 83.4% | viability, T/C (second compound 3.16 µM, first compound 3 µM): 101% | viability, T/C (second compound 10 µM, first compound 0.00949 µM): 100% | viability, T/C (second compound 10 µM, first compound 0.03 µM): 113% | viability, T/C (second compound 10 µM, first compound 0.0949 µM): 122% | viability, T/C (second compound 10 µM, first compound 0.3 µM): 113% | viability, T/C (second compound 10 µM, first compound 0.949 µM): 111% | viability, T/C (second compound 10 µM, first compound 3 µM): 124%

COc1cc2nccc(Oc3ccc(NC(=O)C4(C(=O)Nc5ccc(F)cc5)CC4)cc3)c2cc1OC + C=CC(=O)N1CCN(c2nc(=O)n(-c3c(C)ccnc3C(C)C)c3nc(-c4c(O)cccc4F)c(F)cc23)C(C)C1
IC50 [1]: > 10 µM | IC50 [2]: 6.21 µM | IC50 [3]: 7.63 µM | IC50 [4]: 9.55 µM | IC50 [5]: > 10 µM | IC50 [6]: 8.55 µM | viability, T/C [7]: 66.7% | viability, T/C [8]: 102% | viability, T/C [9]: 63.2% | viability, T/C [10]: 72.4% | viability, T/C [11]: 77.2% | viability, T/C [12]: 51.5% | viability, T/C [13]: 61.5% | viability, T/C [14]: 71% | viability, T/C [15]: 89.2% | viability, T/C [16]: 92.6% | viability, T/C [17]: 91.7% | viability, T/C [18]: 27.8% | viability, T/C [19]: 79.2% | viability, T/C [20]: 108% | viability, T/C [21]: 96.6% | viability, T/C [22]: 80.6% | viability, T/C [23]: 83.3% | viability, T/C [24]: 40.2% | viability, T/C [25]: 87% | viability, T/C [26]: 89.5% | viability, T/C [27]: 111% | viability, T/C [28]: 92.4% | viability, T/C [29]: 92.6% | viability, T/C [30]: 48.2% | viability, T/C [31]: 103% | viability, T/C [32]: 124% | viability, T/C [33]: 129% | viability, T/C [34]: 88% | viability, T/C [35]: 84.2% | viability, T/C [36]: 56.9% | viability, T/C [37]: 112% | viability, T/C [38]: 102% | viability, T/C [39]: 109% | viability, T/C [40]: 97.9% | viability, T/C [41]: 123% | viability, T/C [42]: 40.7%

COc1cc(Nc2ncc3c(n2)-c2ccc(Cl)cc2C(c2c(F)cccc2OC)=NC3)ccc1C(=O)O
viability, T/C (compound 0.1 µM): 90.3% [middle of 5 runs] | viability, T/C (compound 0.316 µM): 96% [middle of 5 runs] | viability, T/C (compound 1 µM): 94% [middle of 5 runs] | viability, T/C (compound 3.16 µM): 104% [middle of 5 runs] | viability, T/C (compound 10 µM): 61.2% [middle of 5 runs] | IC50 (curve of compound): > 10 µM

CC(=O)Nc1cccc(-n2c(=O)n(C3CC3)c(=O)c3c(Nc4ccc(I)cc4F)n(C)c(=O)c(C)c32)c1
viability, T/C (compound 94.9 pM): 110% [middle of 5 runs] | viability, T/C (compound 0.000949 µM): 118% [middle of 5 runs] | viability, T/C (compound 0.00949 µM): 71.8% [middle of 5 runs] | viability, T/C (compound 0.03 µM): 17.6% [middle of 5 runs] | IC50 (curve of compound): 14.7 nM [middle of 5 runs]

Cn1ncnc1[C@H]1c2n[nH]c(=O)c3cc(F)cc(c23)N[C@@H]1c1ccc(F)cc1
viability, T/C (compound 0.001 µM): 87.9% [middle of 5 runs] | viability, T/C (compound 0.00316 µM): 83.8% [middle of 5 runs] | viability, T/C (compound 0.01 µM): 90.7% [middle of 5 runs] | viability, T/C (compound 0.0316 µM): 88.1% [middle of 5 runs] | viability, T/C (compound 0.1 µM): 84.2% [middle of 5 runs] | IC50 (curve of compound): > 0.1 µM

CC1COCCN1c1cc(-c2ccnn2C)c2ccnc(-c3ccn[nH]3)c2n1 (centres undefined)
viability, T/C (compound 0.03 µM): 80.5% [middle of 5 runs] | viability, T/C (compound 0.0949 µM): 87.6% [middle of 5 runs] | viability, T/C (compound 0.3 µM): 73.6% [middle of 5 runs] | viability, T/C (compound 0.949 µM): 56.7% [middle of 5 runs] | viability, T/C (compound 3 µM): 47.6% [middle of 5 runs] | IC50 (curve of compound): > 3 µM and 1.95 µM and 2.38 µM

COC(=O)c1ccc2c(C(=Nc3ccc(N(C)C(=O)CN4CCN(C)CC4)cc3)c3ccccc3)c(O)[nH]c2c1 + CNCc1ccccc1-c1csc(C(C)Nc2nc(C)nc3cc(OC)c(OC)cc23)c1
IC50 [1]: 1.55 µM | IC50 [2]: 1.47 µM | IC50 [3]: 1.42 µM | IC50 [4]: 1.19 µM | IC50 [5]: 0.988 µM | IC50 [6]: < 0.0316 µM | viability, T/C [7]: 77% | viability, T/C [8]: 117% | viability, T/C [9]: 76.5% | viability, T/C [10]: 53.4% | viability, T/C [11]: 37.9% | viability, T/C [12]: 0.32% | viability, T/C [13]: 76.7% | viability, T/C [14]: 103% | viability, T/C [15]: 87.3% | viability, T/C [16]: 48.4% | viability, T/C [17]: 36.9% | viability, T/C [18]: 0.41% | viability, T/C [19]: 74.6% | viability, T/C [20]: 125% | viability, T/C [21]: 90.9% | viability, T/C [22]: 53.1% | viability, T/C [23]: 31.9% | viability, T/C [24]: 0.39% | viability, T/C [25]: 72.9% | viability, T/C [26]: 85.9% | viability, T/C [27]: 72.3% | viability, T/C [28]: 57.5% | viability, T/C [29]: 10.4% | viability, T/C [30]: 0.24% | viability, T/C [31]: 103% | viability, T/C [32]: 95.8% | viability, T/C [33]: 84% | viability, T/C [34]: 53.1% | viability, T/C [35]: 0.34% | viability, T/C [36]: 0.27% | viability, T/C [37]: 0.37% | viability, T/C [38]: 0.4% | viability, T/C [39]: 0.49% | viability, T/C [40]: 0.51% | viability, T/C [41]: 0.34% | viability, T/C [42]: 0.2%
